According to PMC8321240, “Cell-Type-Specific High Throughput Toxicity Testing in Human Midbrain Organoids” (Frontiers in Molecular Neuroscience, 2021):

Columns and labels:
[1] = system: automated midbrain organoids (AMOs); assay: Primary organoid viability screen (ATP-based CellTiter-Glo 3D); assay type: cell-based, human; settings: approx. 100 μM, 48 or 96 h, two AMO lines
Method: We cultured AMOs for 47 days in our automated system as described above. On day 47, we exchanged the organoid medium to a minimal tox medium (TM, consisting of DMEM/F-12 with 1% N2 supplement and 1% penicillin/streptomycin/glutamine) to reduce possible interference from antioxidants in the B27 media supplement. The next day, we treated the AMOs with the compounds from the library at a concentration of 100 μM in TM with some deviations due to solubility (see Supplementary Table 1 for a complete list of compounds including their final concentrations in the screen). DMSO control samples contained 0.5% (v/v) DMSO, which is equivalent to the amount of solvent in the samples that received compound treatment. After 48 h of incubation with the compounds, we either directly processed the organoids for the 48-h time point or renewed the compounds in TM once to achieve 96 h of incubation. […] We recorded the luminescence immediately after the transfer using a Synergy Mx plate reader (BioTek). […]
In detail: All compounds including their controls were arrayed on a single 96-well plate (see Supplementary Table 1 for well positions), and replicated across three plates for a total of n = 3 replicates per condition (except AMO line 2 at 48 h n = 2). […] During our analysis, we first averaged the two technical replicates from the luminescence measurement in Microsoft Excel, yielding one averaged luminescence value for each well of the original 96-well AMO plates. Then, we normalized the luminescence detected in each well to the mean luminescence of the four DMSO controls of the same plate to get a relative organoid viability value. Normalization was performed separately for each plate to account for and correct for potential differences during the luminescence measurements. […] We further assessed the homogeneity of the AMOs by calculating the coefficient of variation (CV) for the relative viabilities of the DMSO controls (i.e., we divided the standard deviations by the corresponding means and averaged the resulting CV values for the DMSO controls). […]

[2] = system: TH+ dopaminergic and Map2+ general neurons in AMOs; assay: Dose-response analysis, TH and Map2 content by high content imaging; assay type: cell-based, human; settings: 48 h + 6 days
Method: All processing steps were conducted in an HTS-compatible automated liquid handling system (ALHS, a Biomek FXP liquid handling station). To quantify different cellular subpopulations within the AMOs, we employed our previously described (Renner et al., [2020], [2021b]) ALHS-compatible workflow for combined whole-mount staining and clearing, with minor modifications. We fixed the AMOs with 4% PFA (VWR) for 10–15 min and stained the entire aggregates with primary and secondary antibodies for 6 days each. The antibodies used in this study were as follows. Primary: mouse anti-Map2 (1:1,000, Merck Millipore, cat#: MAB3418) and rabbit anti-TH (1:500, Abcam, cat#: ab112). Secondary: donkey anti-mouse IgG, Alexa Fluor 488 conjugated (1:1,000, Thermo Fisher, cat#: A-21202) and donkey anti-rabbit IgG, Alexa Fluor 647 conjugated (1:1,000, Thermo Fisher, cat#: A-31573). The antibodies were diluted in blocking and permeabilization solution consisting of 6% BSA, 0.5% Triton-X 100 (Roth), 0.1% (w/v) sodium azide (Sigma-Aldrich) in PBS (Sigma-Aldrich) and immediately added after fixation following a triple rinse with PBS. We renewed the antibody solutions once after three days. As a nuclear counter stain, we added DAPI (1 μg/ml, Sigma-Aldrich) to the solution containing the secondary antibodies. Between primary and secondary antibody application and after finishing the secondary antibody incubation, we washed the samples overnight with 0.1% Triton X-100 in PBS, with a total of five exchanges of the washing solution. After the whole-mount staining, we performed BABB-based tissue clearing (Dent et al., [1989]) to allow image acquisition with single-cell resolution of the entire aggregates. For this purpose, we first dehydrated the AMOs via a stepwise methanol (Roth) series (25%, 50%, 70%, 90%, and 100%, each for 15 min). For clearing and imaging, we transferred them to organic solvent-resistant cyclo-olefin 96-well flat-bottom plates (“Screenstar”, Greiner Bio-One). Finally, we incubated the samples for 30 min in 1:1 (v/v) methanol/BABB (BABB consisted of benzyl alcohol (Sigma-Aldrich) and benzyl benzoate (Sigma-Aldrich) at a 1:1 (v/v) ratio) and then kept them in 100% BABB in the dark for storage and subsequent automated high content confocal fluorescent analysis.
We prepared and treated the AMOs with the compounds as described for the primary viability screen. On day 50, after 48 h of compound incubation, we replaced the medium with standard AMO medium and maintained the AMOs for 6 additional days under standard culture conditions. This additional time allows the cells killed by the compounds to be cleared from the aggregates. After the 6 days, we fixed the organoids with 4% PFA, whole-mount-stained them for TH and Map2, and tissue-cleared them as described above. To achieve uniform aggregate positioning within the wells before imaging, we tilted the plates off the horizontal plane at 60 degrees for a minimum of 5 min. We performed automated image acquisition of entire 96-well plates on an Operetta high content imager (Perkin Elmer) and analyzed images in the Harmony 4.1 software and/or Columbus version 2.6.0 as previously described (Renner et al., [2020]), with adjustments to account for the individual properties of the staining and samples. We acquired three medial planes for each organoid, spaced 36.6 μm apart to avoid double-sampling individual morphological features. For the analysis, we defined the organoid region in each image by summing all channels, removed small localized features with a median filter (10 px), and identified putative organoids/regions of interest (ROIs) with the “find image region” function. To identify bona fide AMOs and exclude image artifacts and dust, we selected the ROIs with an area >9,000 μm^2, roundness >0.4, and mean DAPI intensity >190 arbitrary brightness units (abu).

[3] = system: automated midbrain organoids (AMOs); assay: Dose-response analysis, ATP-based overall AMO viability; assay type: cell-based, human; settings: 0.01-1,000 μM, 48 h + 6 days; viability, Map2 and TH readouts
Method: AMOs were cultured as described above for 47 days. On day 47, we exchanged their medium to tox medium (TM), initially without the addition of any compounds. […] For each compound, we included n = 8 controls per compound treated with the corresponding solvent at an amount equivalent to the highest compound concentration. To assess viability and cell type-specific toxicity in parallel and under the same conditions, we treated all samples with the compounds for 48 h, then exchanged their medium to standard culture medium without compounds and maintained them for an additional 6 days before analysis to allow breakdown and removal of cellular debris. Organoid viability and cell type-specific toxicity were analyzed as described for the primary screens. Here, we acquired five confocal planes spaced 36.6 μm apart in our Operetta high content imager. The image analysis of the AMOs for cell type-specific toxicity assessment required minor adjustments to account for the individual properties of the staining. […] For Map2, we performed Gaussian smoothing with a width of 10 px and omitted the additional sliding parabola filter. The other steps were performed as outlined for the primary cell-type-specific toxicity screen. […] In detail: The dose-response series, including the individual solvent controls, was performed for every compound on a separate 96-well plate of AMOs with initially n = 8 organoids per concentration. […] Data processing, including normalizations, was performed for each individual compound/plate as outlined above for the primary screens. Significant differences between the Map2 and TH content were also determined in GraphPad Prism as described for the primary screen and with the same parameters (multiple comparisons were performed for the different concentrations instead of compounds).

[4] = system: automated midbrain organoids (AMOs); assay: Viability of 3D AMOs (CellTiter-Glo 3D) in the 2D vs 3D comparison; assay type: cell-based, human; settings: for IC50: Homo sapiens, 48 h exposure from day 50
Method: We cultured AMOs for 47 days in our automated system as described above. On day 47, we exchanged the organoid medium to a minimal tox medium (TM, consisting of DMEM/F-12 with 1% N2 supplement and 1% penicillin/streptomycin/glutamine) to reduce possible interference from antioxidants in the B27 media supplement. The next day, we treated the AMOs with the compounds from the library at a concentration of 100 μM in TM with some deviations due to solubility (see Supplementary Table 1 for a complete list of compounds including their final concentrations in the screen). DMSO control samples contained 0.5% (v/v) DMSO, which is equivalent to the amount of solvent in the samples that received compound treatment. After 48 h of incubation with the compounds, we either directly processed the organoids for the 48-h time point or renewed the compounds in TM once to achieve 96 h of incubation. Following either 48 or 96 h of compound incubation, we used the CellTiter-Glo 3D cell viability assay (Promega) to measure the viability of individual organoids, as previously described (Renner et al., [2020]). Briefly, the 96-well plates of AMOs and the reagents were brought to room temperature for 30 min. We adjusted the media volume of each well to 55 μl and added an equal volume (55 μl) of the CellTiter-Glo 3D reagent. Next, the samples were shaken on a Thermomixer (Eppendorf) at 900 rpm for 5 min and then incubated for 25 min at room temperature while protected from light. To minimize signal cross-talk between adjacent wells, we transferred the contents of the clear 96-well culture plates to white/opaque 384-well Lumitrac plates (Greiner) with two technical replicates (20 μl each) per sample, after the incubation. We recorded the luminescence immediately after the transfer using a Synergy Mx plate reader (BioTek). We outputted the results to Microsoft Excel for reformatting and then transferred them to GraphPad Prism v9.0.1 (Graphpad Software, Inc.) for plotting and statistical analysis.
To compare the toxic effects of compounds on AMOs and 2D-cultured midbrain dopaminergic neurons, we seeded and cultured both in parallel and generated them from the same smNPC starting cell population. For 2D dopaminergic neuron differentiation, smNPCs were seeded in 1% (v/v in KO-DMEM/F-12) Matrigel-coated 6-well plates and standard smNPC medium, following digestion by accutase as described above. From day 2 onwards, they were treated identically with the AMOs (i.e., they received the same media at the same timepoints). To work with the 2D dopaminergic neurons in a screening setting (and have the same plate format as the AMOs), we reseeded them to flat-bottom 96-well plates (“μCLEAR”, black, Greiner) at a density of 70,000 cells/well on day 48. On day 49, the medium of both 2D mDA neurons and 3D AMOs was exchanged to tox medium. The next day, we treated them with different concentrations (0.01, 0.1, 1, 10, 50, 100, 200, 500, and 1,000 μM; controls received the corresponding solvent at an amount equivalent to the highest compound concentration; n = 6 per concentration) of the compounds lindane (Sigma-Aldrich, in ethanol) and 6-hydroxydopamine hydrochloride (Sigma Aldrich, in DMSO) in tox medium. After 48 h of incubation, we measured the samples’ viability. For the AMOs, we used the CellTiter-Glo 3D cell viability assay as described above. We measured the 2D mDA neuron viability with the CellTiter-Glo 2.0 cell viability assay (Promega) according to the manufacturer’s instructions. In short, we brought the sample plates and reagents to room temperature for 30 min. We adjusted the media volume of the samples to 50 μl and added an equal volume (50 μl) of the CellTiter-Glo 2.0 reagent. We let the plate shake for 2 min at 900 rpm on a Thermomixer and then incubated them for 10 min at room temperature and protected from light. Immediately afterward, we measured the luminescence on a Synergy Mx plate reader. […]

[5] = system: 2D-cultured midbrain dopaminergic (mDA) neurons; assay: Viability of 2D-cultured mDA neurons (CellTiter-Glo 2.0) in the 2D vs 3D comparison; assay type: cell-based; settings: Homo sapiens, Neuron, 2D mDA neurons, 48 h exposure from day 50
Method: To compare the toxic effects of compounds on AMOs and 2D-cultured midbrain dopaminergic neurons, we seeded and cultured both in parallel and generated them from the same smNPC starting cell population. For 2D dopaminergic neuron differentiation, smNPCs were seeded in 1% (v/v in KO-DMEM/F-12) Matrigel-coated 6-well plates and standard smNPC medium, following digestion by accutase as described above. From day 2 onwards, they were treated identically with the AMOs (i.e., they received the same media at the same timepoints). To work with the 2D dopaminergic neurons in a screening setting (and have the same plate format as the AMOs), we reseeded them to flat-bottom 96-well plates (“μCLEAR”, black, Greiner) at a density of 70,000 cells/well on day 48. On day 49, the medium of both 2D mDA neurons and 3D AMOs was exchanged to tox medium. The next day, we treated them with different concentrations (0.01, 0.1, 1, 10, 50, 100, 200, 500, and 1,000 μM; controls received the corresponding solvent at an amount equivalent to the highest compound concentration; n = 6 per concentration) of the compounds lindane (Sigma-Aldrich, in ethanol) and 6-hydroxydopamine hydrochloride (Sigma Aldrich, in DMSO) in tox medium. After 48 h of incubation, we measured the samples’ viability. For the AMOs, we used the CellTiter-Glo 3D cell viability assay as described above. We measured the 2D mDA neuron viability with the CellTiter-Glo 2.0 cell viability assay (Promega) according to the manufacturer’s instructions. In short, we brought the sample plates and reagents to room temperature for 30 min. We adjusted the media volume of the samples to 50 μl and added an equal volume (50 μl) of the CellTiter-Glo 2.0 reagent. We let the plate shake for 2 min at 900 rpm on a Thermomixer and then incubated them for 10 min at room temperature and protected from light. Immediately afterward, we measured the luminescence on a Synergy Mx plate reader. We outputted the results to Microsoft Excel and GraphPad Prism v9.0.1 for reformatting, plotting, and analysis. Data processing was performed as outlined for the CellTiter-Glo 3D-based viability assay above, except for the averaging of technical replicates, as measurements were performed directly in the culture plate without additional technical replicates.
All other data analysis steps including the statistical analysis to identify significant differences in toxicity between 2D and 3D (via multiple unpaired t-tests with the same parameters as above, corrected for using the Bonferroni-Dunn method, and considering padj <0.05 as significant), as well as dose-response curve fitting, were performed as described in detail above. The IC50 values were taken from the same regression/analysis as the dose-response curves.

[6] = system: 2D cultured dopaminergic neurons; parameters: method as in Sharma et al., 2010; settings: ref Sharma et al., 2010; cited from earlier work
[7] = 0.01-1,000 μM (rotenone up to 100 μM), both AMO lines

| SMILES | toxicity in the primary screens [1] | Map2 content (general neurons) [2, 7] | TH content (dopaminergic neurons) [2, 7] | TH levels compared to Map2 levels ([2]; dose-response, padj < 0.05) | overall toxicity in the dose-response experiments [3] | concentrations with significant 2D vs 3D viability difference ([4]; AMO line 1, 48 h) | concentrations with significant 2D vs 3D viability difference ([4]; AMO line 2, 48 h) | IC50 ([4]; AMO line 1, 3D) | IC50 ([4]; AMO line 2, 3D) | toxicity in 3D AMOs compared with 2D-cultured dopaminergic neurons ([4]; both cell lines, 48 h, 0.01-1,000 μM, padj < 0.05) | IC50 ([5]; AMO line 1 cell line) | IC50 ([5]; AMO line 2 cell line) | toxicity of lindane alone [6] |
| --- | --- | --- | --- | --- | --- | --- | --- | --- | --- | --- | --- | --- | --- |
| O=C1C2CC=CCC2C(=O)N1SC(Cl)(Cl)Cl (centres unmarked) [captan] | intermediate toxicity | reduced | reduced | significantly reduced TH levels compared to Map2 over a broad range of concentrations | intermediate compared to ASS and the more toxic compounds |  |  |  |  |  |  |  |  |
| Cl[C@H]1[C@H](Cl)[C@@H](Cl)[C@@H](Cl)[C@H](Cl)[C@H]1Cl [lindane] | strong possible toxicity |  |  |  |  | ≥ 200 µM | 200 µM | 130 µM | 130 µM | significantly more toxic in AMOs than in the 2D-cultured dopaminergic neurons | 202 µM | 201 µM | only mild toxicity |
